Experiment [1] has as its target T1, human PHD2 (PHD2181-417) (Homo sapiens, UniProt Q9GZT9).
T1 construct: Smt (SUMO) tag (cleaved yes); made in house; host or cells: E. coli BL21 (pBAD vector)
The experiment can be described thus: PHD enzymatic assay ([14C]-succinic acid production). The format is biochemical. Particulars: PHD2181-417, HIF-1α peptide 10 μM, average of results; read-out: Enzyme pIC50 (converted). A digest of the protocol: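 Activity measured as [14C]-succinic acid formed from [5-14C]-2-oxoglutarate over 10 minutes, with peptide substrate at 10 μM, in Tris-HCl pH 7.5 buffer containing catalase, DTT and ascorbate. Unreacted oxoglutarate removed by DNP derivatisation; supernatant beta-counted.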

For experiment [2], the system named is Hep-3B cells. The experiment can be described thus: Cellular assay: erythropoietin secretion in Hep-3B cells. Conditions: Homo sapiens, Hep3B, 100 μM compound, 24 hours, percent of EPO secretion relative to assay control compound 7-[(4-Chloro-phenyl)-(5-methyl-isoxazol-3-ylamino)-methyl]-quinolin-8-ol, read-out: Cellular % EPO Stimulation. The class given is cell-based, human. A digest of the protocol:
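Hep-3B cells in DMEM with 10% FBS, treated 24 h after plating with compounds at 100 μM final for a further 24 h. Secreted EPO in supernatant measured by MSD electrochemiluminescence sandwich immunoassay with anti-EPO detection antibody.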

Structures are written as SMILES.

T1 sequence (Q9GZT9 181-417): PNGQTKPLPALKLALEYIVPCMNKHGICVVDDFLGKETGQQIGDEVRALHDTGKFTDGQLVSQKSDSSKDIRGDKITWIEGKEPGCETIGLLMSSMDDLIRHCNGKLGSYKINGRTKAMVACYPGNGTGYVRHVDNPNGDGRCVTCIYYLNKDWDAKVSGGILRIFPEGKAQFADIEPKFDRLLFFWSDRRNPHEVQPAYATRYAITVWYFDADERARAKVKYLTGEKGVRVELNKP

For `O=C(O)c1cnn(-c2nc3ccc(C(=O)N4CCCC4)cc3c(=O)[nH]2)c1` [Example 162, 1-[4-Oxo-6-(pyrrolidine-1-carbonyl)-3,4-dihydro-quinazolin-2-yl]-1H-pyrazole-4-carboxylic acid], the IC50 in experiment [1] is 31.6 nM. The Emax at 100 µM in experiment [2] was 15%.
Consider `Cc1cccc(C)c1NC(=O)c1ccc2nc(-n3cc(C(=O)O)cn3)[nH]c(=O)c2c1` [Example 163, 1-[6-(2,6-Dimethyl-phenylcarbamoyl)-4-oxo-3,4-dihydro-quinazolin-2-yl]-1H-pyrazole-4-carboxylic acid], for which the IC50 in experiment [1] was 39.8 nM. Also, in experiment [2], the Emax at 100 µM amounted to 14%.
Turning to `O=C(O)c1cnn(-c2nc3ccc([N+](=O)[O-])cc3c(=O)[nH]2)c1` [Example 164, 1-(6-Nitro-4-oxo-3,4-dihydro-quinazolin-2-yl)-1H-pyrazole-4-carboxylic acid], the IC50 in experiment [1] was 25.1 nM. The Emax at 100 µM in experiment [2] came out at 17%.
On the same counts, the results for `O=C(O)c1cnn(-c2nc3ccc(NC(=O)c4ccccc4)cc3c(=O)[nH]2)c1` [Example 165, 1-(6-Benzoylamino-4-oxo-3,4-dihydro-quinazolin-2-yl)-1H-pyrazole-4-carboxylic acid] are 25.1 nM and 19%.
As for `Cc1cccc(C)c1C(=O)Nc1ccc2nc(-n3cc(C(=O)O)cn3)[nH]c(=O)c2c1` [Example 166, 1-[6-(2,6-Dimethyl-benzoylamino)-4-oxo-3,4-dihydro-quinazolin-2-yl]-1H-pyrazole-4-carboxylic acid], the IC50 in experiment [1] is 31.6 nM. Moreover, the Emax at 100 µM in experiment [2] turned out to be 11%.
With `CC(=O)Nc1ccc2nc(-n3cc(C(=O)O)cn3)[nH]c(=O)c2c1` [Example 167, 1-(6-Acetylamino-4-oxo-3,4-dihydro-quinazolin-2-yl)-1H-pyrazole-4-carboxylic acid], in experiment [1], the IC50 was 31.6 nM. For the same compound, the Emax at 100 µM in experiment [2] worked out at 26%.
`O=C(Nc1ccccc1)Nc1ccc2nc(-n3cc(C(=O)O)cn3)[nH]c(=O)c2c1` [Example 168, 1-[4-Oxo-6-(3-phenyl-ureido)-3,4-dihydro-quinazolin-2-yl]-1H-pyrazole-4-carboxylic acid]: the IC50 in experiment [1] is 31.6 nM. In addition, in experiment [2], the Emax at 100 µM amounted to 4%.
The corresponding values for `O=C(O)c1cnn(-c2nc3ccc(NS(=O)(=O)c4ccccc4)cc3c(=O)[nH]2)c1` [Example 169, 1-(6-Benzenesulfonylamino-4-oxo-3,4-dihydro-quinazolin-2-yl)-1H-pyrazole-4-carboxylic acid] are 25.1 nM and 34%.
On to `CS(=O)(=O)Nc1ccc2nc(-n3cc(C(=O)O)cn3)[nH]c(=O)c2c1` [Example 170, 1-(6-Methanesulfonylamino-4-oxo-3,4-dihydro-quinazolin-2-yl)-1H-pyrazole-4-carboxylic acid], for which the IC50 in experiment [1] was 31.6 nM. Moreover, in experiment [2], the Emax at 100 µM was 15%.
Regarding `O=C(O)c1cnn(-c2nc3ccc(NCc4ccccc4)cc3c(=O)[nH]2)c1` [Example 171, 1-(6-Benzylamino-4-oxo-3,4-dihydro-quinazolin-2-yl)-1H-pyrazole-4-carboxylic acid], in experiment [1], the IC50 is 25.1 nM. Also, in experiment [2], the Emax at 100 µM came out at 34%.
Consider `CCNc1ccc2nc(-n3cc(C(=O)O)cn3)[nH]c(=O)c2c1` [Example 172, 1-(6-Ethylamino-4-oxo-3,4-dihydro-quinazolin-2-yl)-1H-pyrazole-4-carboxylic acid], for which the IC50 in experiment [1] is 25.1 nM. The Emax at 100 µM in experiment [2] worked out at 20%.
Regarding `Cc1ccccc1CNc1ccc2nc(-n3cc(C(=O)O)cn3)[nH]c(=O)c2c1` [Example 173, 1-[6-(2-Methyl-benzylamino)-4-oxo-3,4-dihydro-quinazolin-2-yl]-1H-pyrazole-4-carboxylic acid], the IC50 in experiment [1] was 20 nM. Further, the Emax at 100 µM in experiment [2] worked out at 101%.
For the compound `O=C(O)c1cnn(-c2nc3ccc(NCc4ccccc4Cl)cc3c(=O)[nH]2)c1` [Example 174, 1-[6-(2-Chloro-benzylamino)-4-oxo-3,4-dihydro-quinazolin-2-yl]-1H-pyrazole-4-carboxylic acid], the IC50 in experiment [1] was 20 nM. For the same compound, the Emax at 100 µM in experiment [2] is 24%.
Take `Cc1cccc(C)c1CNc1ccc2nc(-n3cc(C(=O)O)cn3)[nH]c(=O)c2c1` [Example 175, 1-[6-(2,6-Dimethyl-benzylamino)-4-oxo-3,4-dihydro-quinazolin-2-yl]-1H-pyrazole-4-carboxylic acid]: the IC50 in experiment [1] was 31.6 nM. The Emax at 100 µM in experiment [2] was 97%.
For the compound `O=C(O)c1cnn(-c2nc3ccc(NCc4c(F)cccc4F)cc3c(=O)[nH]2)c1` [Example 176, 1-[6-(2,6-Difluoro-benzylamino)-4-oxo-3,4-dihydro-quinazolin-2-yl]-1H-pyrazole-4-carboxylic acid], the IC50 in experiment [1] was 39.8 nM. Further, in experiment [2], the Emax at 100 µM stood at 26%.
Consider `N#Cc1ccccc1CNc1ccc2nc(-n3cc(C(=O)O)cn3)[nH]c(=O)c2c1` [Example 177, 1-[6-(2-Cyano-benzylamino)-4-oxo-3,4-dihydro-quinazolin-2-yl]-1H-pyrazole-4-carboxylic acid], for which, in experiment [1], the IC50 was 50.1 nM. For the same compound, the Emax at 100 µM in experiment [2] was 13%.
The corresponding values for `N#Cc1cccc(CNc2ccc3nc(-n4cc(C(=O)O)cn4)[nH]c(=O)c3c2)c1` [Example 178, 1-[6-(3-Cyano-benzylamino)-4-oxo-3,4-dihydro-quinazolin-2-yl]-1H-pyrazole-4-carboxylic acid] are 20 nM and 12%.
Regarding `NC(=O)c1cccc(CNc2ccc3nc(-n4cc(C(=O)O)cn4)[nH]c(=O)c3c2)c1` [Example 179, 1-[6-(3-Carbamoyl-benzylamino)-4-oxo-3,4-dihydro-quinazolin-2-yl]-1H-pyrazole-4-carboxylic acid], the IC50 in experiment [1] is 25.1 nM. Besides, the Emax at 100 µM in experiment [2] came to 12%.
In the case of `Nc1ccc2nc(-n3cc(C(=O)O)cn3)[nH]c(=O)c2c1` [Example 180, 1-[6-amino-4-oxo-3,4-dihydro-quinazolin-2-yl]-1H-pyrazole-4-carboxylic acid], the IC50 in experiment [1] is 63.1 nM. Moreover, in experiment [2], the Emax at 100 µM stood at 8%.
The corresponding values for `O=C(O)c1cnn(-c2nc3ccc(NCc4c(Cl)cccc4Cl)cc3c(=O)[nH]2)c1` [Example 181, 1-[6-(2,6-Dichloro-benzylamino)-4-oxo-3,4-dihydro-quinazolin-2-yl]-1H-pyrazole-4-carboxylic acid] are 25.1 nM and 118%.
On to `O=C(O)c1cnn(-c2nc3ccc(NCc4cccc(Cl)c4)cc3c(=O)[nH]2)c1` [Example 182, 1-[6-(3-Chloro-benzylamino)-4-oxo-3,4-dihydro-quinazolin-2-yl]-1H-pyrazole-4-carboxylic acid], for which the IC50 in experiment [1] was 25.1 nM. In experiment [2], the Emax at 100 µM is 26%.
Take `Cc1ccc(CNc2ccc3nc(-n4cc(C(=O)O)cn4)[nH]c(=O)c3c2)cc1` [Example 183, 1-[6-(4-methyl-benzylamino)-4-oxo-3,4-dihydro-quinazolin-2-yl]-1H-pyrazole-4-carboxylic acid]: the IC50 in experiment [1] was 15.8 nM. Further, the Emax at 100 µM in experiment [2] worked out at 89%.
`O=C(O)c1cnn(-c2nc3cc(-c4ccccc4)ccc3c(=O)[nH]2)c1` [Example 184, 1-(4-Oxo-7-phenyl-3,4-dihydro-quinazolin-2-yl)-1H-pyrazole-4-carboxylic acid]: the IC50 in experiment [1] was 79.4 nM. The Emax at 100 µM in experiment [2] amounted to 12%.
Take `O=C(O)c1cnn(-c2nc3cc(-c4ccccc4Cl)ccc3c(=O)[nH]2)c1` [Example 185, 1-[7-(2-Chloro-phenyl)-4-oxo-3,4-dihydro-quinazolin-2-yl]-1H-pyrazole-4-carboxylic acid]: the IC50 in experiment [1] is 100 nM. Besides, the Emax at 100 µM in experiment [2] came out at 15%.
The corresponding values for `O=C(O)c1cnn(-c2nc3cc(-c4cccc(Cl)c4)ccc3c(=O)[nH]2)c1` [Example 186, 1-[7-(3-Chloro-phenyl)-4-oxo-3,4-dihydro-quinazolin-2-yl]-1H-pyrazole-4-carboxylic acid] are 50.1 nM and 26%.
With `O=C(O)c1cnn(-c2nc3cc(-c4ccc(Cl)cc4)ccc3c(=O)[nH]2)c1` [Example 187, 1-[7-(4-Chloro-phenyl)-4-oxo-3,4-dihydro-quinazolin-2-yl]-1H-pyrazole-4-carboxylic acid], the IC50 in experiment [1] was 63.1 nM. For the same compound, the Emax at 100 µM in experiment [2] turned out to be 24%.
As for `Cc1ccccc1-c1ccc2c(=O)[nH]c(-n3cc(C(=O)O)cn3)nc2c1` [Example 188, 1-(4-Oxo-7-o-tolyl-3,4-dihydro-quinazolin-2-yl)-1H-pyrazole-4-carboxylic acid], the IC50 in experiment [1] was 79.4 nM. Further, the Emax at 100 µM in experiment [2] turned out to be 11%.
On the same counts, the results for `Cc1cccc(-c2ccc3c(=O)[nH]c(-n4cc(C(=O)O)cn4)nc3c2)c1` [Example 189, 1-(4-Oxo-7-m-tolyl-3,4-dihydro-quinazolin-2-yl)-1H-pyrazole-4-carboxylic acid] are 50.1 nM and 25%.
As for `Cc1cccc(-c2ccc3nc(-n4cc(C(=O)O)cn4)[nH]c(=O)c3c2)c1` [Example 190, 1-(4-Oxo-6-m-tolyl-3,4-dihydro-quinazolin-2-yl)-1H-pyrazole-4-carboxylic acid], in experiment [1], the IC50 is 25.1 nM. Moreover, in experiment [2], the Emax at 100 µM came out at 91%.
Turning to `Cc1ccc(-c2ccc3nc(-n4cc(C(=O)O)cn4)[nH]c(=O)c3c2)cc1` [Example 191, 1-(4-Oxo-6-p-tolyl-3,4-dihydro-quinazolin-2-yl)-1H-pyrazole-4-carboxylic acid], in experiment [1], the IC50 is 20 nM. In addition, in experiment [2], the Emax at 100 µM was 31%.

(Values after patent publication US8937078B2, “Quinazolinones as prolyl hydroxylase inhibitors” (Janssen Pharmaceutica NV, priority 2009, dated 2015).)
